Laboratory results from patent US9078871B2, “Estrogen receptor modulators and uses thereof” (SERAGON PHARMACEUTICALS, INC., priority 2010, dated 2015).

Key:
Format in all cases: cell-based
ER-α [1] = target: T1, ER-α (Homo sapiens, UniProt P03372); experiment: ER-α in Cell Western Assay (SP1); conditions: MCF-7 cells, SP1 rabbit monoclonal Ab, 4 or 24 hr post compound addition, read-out: ER In-Cell Western Assay (SP1); for Emax: MCF7, Max Response; for DC50: IC50
T1 construct: endogenous in cells; host or cells: MCF-7
T1 sequence (P03372 1-595): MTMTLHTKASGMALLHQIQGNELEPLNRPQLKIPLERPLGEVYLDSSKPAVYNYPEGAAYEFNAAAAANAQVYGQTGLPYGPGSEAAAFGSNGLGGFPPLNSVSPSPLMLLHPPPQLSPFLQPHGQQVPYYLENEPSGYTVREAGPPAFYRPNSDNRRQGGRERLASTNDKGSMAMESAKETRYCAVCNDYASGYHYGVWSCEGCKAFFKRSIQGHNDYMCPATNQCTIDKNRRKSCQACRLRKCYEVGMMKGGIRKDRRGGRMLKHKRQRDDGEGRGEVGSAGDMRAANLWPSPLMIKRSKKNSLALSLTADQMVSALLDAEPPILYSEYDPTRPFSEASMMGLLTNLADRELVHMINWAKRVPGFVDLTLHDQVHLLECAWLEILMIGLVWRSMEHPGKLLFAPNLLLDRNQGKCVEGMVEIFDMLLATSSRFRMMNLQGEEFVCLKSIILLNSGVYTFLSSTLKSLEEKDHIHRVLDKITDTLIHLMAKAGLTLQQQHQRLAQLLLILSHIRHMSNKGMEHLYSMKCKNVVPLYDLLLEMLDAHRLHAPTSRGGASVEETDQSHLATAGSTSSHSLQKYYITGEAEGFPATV
Method in brief: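 MCF-7 cells in charcoal-stripped FBS medium treated with 11-point semilog dilutions (0.3–0.000003 μM final) for 4 or 24 hr, then fixed and immunostained with SP1 anti-ER antibody. ER signal (800 nm) normalized to DRAQ5 DNA signal (700 nm) and expressed as % of untreated cells.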

MCF-7 cells = experiment: Breast Cancer Cell Viability Assay (MCF7 Viability Assay); conditions: 5 days' compound exposure, CellTiter-Glo; for IC50: Homo sapiens, MCF7, 120 h
Method in brief: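 MCF-7 cells, 320 per well in RPMI with 10% FBS and 20 mM HEPES, adhered overnight, then exposed 5 days to an eleven-point semilog dilution (final 0.3–0.000003 μM). CellTiter-Glo luminescence; % viability relative to untreated cells after subtracting cell-free background.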

ER-α [2] = target: T1, ER-α; experiment: ER-α In Cell Western Assay (ER1D5); conditions: MCF-7 cells, ER1D5 antibody, 4 or 24 hr post compound addition, read-out: ER In-Cell Western Assay (ER1D5); for Emax: MCF7, Max Response; for DC50: IC50
Protocol: MCF-7 cells were adjusted to a concentration of 200,000 cells per mL in RPMI containing 10% charcoal-stripped FBS and 20 mM HEPES. 16 microliters of the cell suspension (3200 cells) was added to each well of a poly-D-lysine 384 well plate, and the cells were incubated overnight to allow the cells to adhere. The following day an eleven point, serial semilog dilution of each compound was added to the cells in 16 μL at a final concentration ranging from 0.3-0.000003 μM. At 4 or 24 hr post compound addition, the cells were fixed (10% formalin in PBS) for 20 minutes. Cells were permeabalized in PBS 0.1% Triton and blocked with LICOR blocking buffer (50 μl/well, 90′). The wells were then incubated overnight at 4° C. with ER1D5 (Santa Cruz Biotechnology) diluted 1:100 in LICOR blocking buffer/0.1% Tween-20. Wells which were treated with blocking buffer with Tween but no antibody were used as a background control. Wells were washed with 0.1% Tween-20/PBS and then incubated in goat anti-mouse IRDye™ 800CW (LICOR Inc.; 1:1000) and DRAQ5 DNA dye (1:2000 for 2 mM stock) diluted in LICOR blocking buffer containing 0.1% Tween-20 and 0.01% SDS for 60 minutes. Cells were washed (50 μl/well, 5′ each) in 0.1% Tween-20/PBS. Plates were scanned on a LICOR Odyssey infrared imaging system. Integrated intensities in the 800 nm channel and 700 nm channel were measured to determine levels of ER and DNA respectively. Percent ER levels were determined as follows: (Integrated intensity 800 nm sample/integrated intensity 700 nm sample)/(Integrated intensity 800 nm untreated cells/integrated intensity 700 nm untreated cells)×100=% ER levels.

CC1=C(c2cccc(O)c2)C(c2ccc(OCCn3ccnc3)cc2)Oc2ccc(O)cc21 (stereo not drawn) [Example 16]
Emax (ER-α [1]): < 60% | DC50 (ER-α [1]): ≤ 1 nM | MCF7 Viability Assay Max Response (MCF-7 cells): + (+ = a single % value <50%) | IC50 (MCF-7 cells): ≤ 1 nM | Emax (ER-α [2]): < 40% | DC50 (ER-α [2]): > 1 nM

CC1=C(c2cccc(O)c2)C(c2ccc(OCCN3CCCCCC3)cc2)Oc2ccc(O)cc21 (stereo not drawn) [Example 17, 2-(4-(2-(Azepan-1-yl)ethoxy)phenyl)-3-(3-hydroxyphenyl)-4-methyl-2H-chromen-6-ol]
Emax (ER-α [1]): 60 to 85% | DC50 (ER-α [1]): ≤ 1 nM | MCF7 Viability Assay Max Response (MCF-7 cells): + (+ = a single % value <50%) | IC50 (MCF-7 cells): ≤ 1 nM | Emax (ER-α [2]): 40 to 65% | DC50 (ER-α [2]): ≤ 1 nM

CC1=C(c2cccc(O)c2)C(c2ccc(OC[C@H](C)N3CCC(C)(C)C3)cc2)Oc2ccc(O)cc21 (stereo partly drawn) [Example 18, 2-(4-((S)-2-(3,3-Dimethylpyrrolidin-1-yl)propoxy)phenyl)-3-(3-hydroxyphenyl)-4-methyl-2H-chromen-6-ol]
Emax (ER-α [1]): 60 to 85% | DC50 (ER-α [1]): ≤ 1 nM | MCF7 Viability Assay Max Response (MCF-7 cells): ++ (++ = a single % value ≧50%) | IC50 (MCF-7 cells): ≤ 1 nM | Emax (ER-α [2]): ≥ 65% | DC50 (ER-α [2]): ≤ 1 nM

CC1=C(c2cccc(O)c2)C(c2ccc(OCCN3CCC(C)(C)C3)cc2)Oc2ccc(O)cc21 (stereo not drawn) [Example 19, 2-(4-(2-(3,3-Dimethylpyrrolidin-1-yl)ethoxy)phenyl)-3-(3-hydroxyphenyl)-4-methyl-2H-chromen-6-ol]
Emax (ER-α [1]): 60 to 85% | DC50 (ER-α [1]): ≤ 1 nM | MCF7 Viability Assay Max Response (MCF-7 cells): ++ (++ = a single % value ≧50%) | IC50 (MCF-7 cells): ≤ 1 nM | Emax (ER-α [2]): ≥ 65% | DC50 (ER-α [2]): ≤ 1 nM

CC1=C(c2cccc(O)c2)C(c2ccc(OCCN3CCC[C@H]3C)cc2)Oc2ccc(O)cc21 (stereo partly drawn) [Example 20, 3-(3-Hydroxyphenyl)-4-methyl-2-(4-(2-((R)-2-methylpyrrolidin-1-yl)ethoxy)phenyl)-2H-chromen-6-ol]
Emax (ER-α [1]): 60 to 85% | DC50 (ER-α [1]): ≤ 1 nM | MCF7 Viability Assay Max Response (MCF-7 cells): ++ (++ = a single % value ≧50%) | IC50 (MCF-7 cells): ≤ 1 nM | Emax (ER-α [2]): 40 to 65% | DC50 (ER-α [2]): ≤ 1 nM

CC1=C(c2cccc(O)c2)C(c2ccc(OCCN3CCC(C)CC3)cc2)Oc2ccc(O)cc21 (stereo not drawn) [Example 21, 3-(3-Hydroxyphenyl)-4-methyl-2-(4-(2-(4-methylpiperidin-1-yl)ethoxy)phenyl)-2H-chromen-6-ol]
Emax (ER-α [1]): 60 to 85% | DC50 (ER-α [1]): ≤ 1 nM | MCF7 Viability Assay Max Response (MCF-7 cells): ++ (++ = a single % value ≧50%) | IC50 (MCF-7 cells): ≤ 1 nM | Emax (ER-α [2]): 40 to 65% | DC50 (ER-α [2]): ≤ 1 nM

CC1=C(c2cccc(O)c2)C(c2ccc(NCCN3CCCC3)cc2)Oc2ccc(O)cc21 (stereo not drawn) [Example 22, 3-(3-Hydroxyphenyl)-4-methyl-2-(4-((2-(pyrrolidin-1-yl)ethyl)amino)phenyl)-2H-chromen-6-ol]
Emax (ER-α [1]): 60 to 85% | DC50 (ER-α [1]): ≤ 1 nM | MCF7 Viability Assay Max Response (MCF-7 cells): + (+ = a single % value <50%) | IC50 (MCF-7 cells): ≤ 1 nM | Emax (ER-α [2]): 40 to 65% | DC50 (ER-α [2]): > 1 nM

CC1=C(c2cccc(O)c2)C(c2ccc(OC[C@H](C)N3CCC[C@H]3C)cc2)Oc2ccc(O)cc21 (stereo partly drawn) [Example 23, 3-(3-Hydroxyphenyl)-4-methyl-2-(4-((S)-2-((R)-2-methylpyrrolidin-1-yl)propoxy)phenyl)-2H-chromen-6-ol]
Emax (ER-α [1]): ≥ 85% | DC50 (ER-α [1]): ≤ 1 nM | MCF7 Viability Assay Max Response (MCF-7 cells): ++ (++ = a single % value ≧50%) | IC50 (MCF-7 cells): ≤ 1 nM | Emax (ER-α [2]): ≥ 65% | DC50 (ER-α [2]): ≤ 1 nM

CC1=C(c2cccc(O)c2)C(c2ccc(OC[C@H](C)N3CCC[C@@H]3C)cc2)Oc2ccc(O)cc21 (stereo partly drawn) [Example 24, 3-(3-Hydroxyphenyl)-4-methyl-2-(4-((S)-2-((S)-2-methylpyrrolidin-1-yl)propoxy)phenyl)-2H-chromen-6-ol]
Emax (ER-α [1]): < 60% | DC50 (ER-α [1]): ≤ 1 nM | MCF7 Viability Assay Max Response (MCF-7 cells): + (+ = a single % value <50%) | IC50 (MCF-7 cells): ≤ 1 nM | Emax (ER-α [2]): 40 to 65% | DC50 (ER-α [2]): ≤ 1 nM

CC1=C(c2cccc(O)c2)C(c2ccc(OCCN3CCCCCCC3)cc2)Oc2ccc(O)cc21 (stereo not drawn) [Example 25, 2-(4-(2-(Azocan-1-yl)ethoxy)phenyl)-3-(3-hydroxyphenyl)-4-methyl-2H-chromen-6-ol]
Emax (ER-α [1]): < 60% | DC50 (ER-α [1]): ≤ 1 nM | MCF7 Viability Assay Max Response (MCF-7 cells): + (+ = a single % value <50%) | IC50 (MCF-7 cells): ≤ 1 nM | Emax (ER-α [2]): < 40% | DC50 (ER-α [2]): ≤ 1 nM

CC1=C(c2cccc(O)c2)C(c2ccc(OCCN3CCCC3)cc2)Oc2cc(O)ccc21 (stereo not drawn) [Example 26, 3-(3-Hydroxyphenyl)-4-methyl-2-(4-(2-(pyrrolidin-1-yl)ethoxy)phenyl)-2H-chromen-7-ol]
Emax (ER-α [1]): 60 to 85% | DC50 (ER-α [1]): ≤ 1 nM | MCF7 Viability Assay Max Response (MCF-7 cells): ++ (++ = a single % value ≧50%) | IC50 (MCF-7 cells): ≤ 1 nM | Emax (ER-α [2]): 40 to 65% | DC50 (ER-α [2]): ≤ 1 nM

CC1=C(c2cccc(O)c2)C(c2ccc(OC[C@H](C)N3CC[C@@H](C)C3)cc2)Oc2cc(O)ccc21 (stereo partly drawn) [Example 27, 3-(3-Hydroxyphenyl)-4-methyl-2-(4-((S)-2-((R)-3-methylpyrrolidin-1-yl)propoxy)phenyl)-2H-chromen-7-ol]
Emax (ER-α [1]): ≥ 85% | DC50 (ER-α [1]): ≤ 1 nM | MCF7 Viability Assay Max Response (MCF-7 cells): ++ (++ = a single % value ≧50%) | IC50 (MCF-7 cells): ≤ 1 nM | Emax (ER-α [2]): ≥ 65% | DC50 (ER-α [2]): ≤ 1 nM

CC1=C(c2ccc(O)cc2)C(c2ccc(OC[C@H](C)N3CC[C@@H](C)C3)cc2)Oc2cc(O)ccc21 (stereo partly drawn) [Example 28, 3-(4-Hydroxyphenyl)-4-methyl-2-(4-((S)-2-((R)-3-methylpyrrolidin-1-yl)propoxy)phenyl)-2H-chromen-7-ol]
Emax (ER-α [1]): ≥ 85% | DC50 (ER-α [1]): ≤ 1 nM | MCF7 Viability Assay Max Response (MCF-7 cells): ++ (++ = a single % value ≧50%) | IC50 (MCF-7 cells): ≤ 1 nM | Emax (ER-α [2]): ≥ 65% | DC50 (ER-α [2]): ≤ 1 nM

CC1=C(c2ccccc2)C(c2ccc(OC[C@H](C)N3CC[C@@H](C)C3)cc2)Oc2ccc(O)cc21 (stereo partly drawn) [Example 29, 4-Methyl-2-(4-((S)-2-((R)-3-methylpyrrolidin-1-yl)propoxy)phenyl)-3-phenyl-2H-chromen-6-ol]
Emax (ER-α [1]): 60 to 85% | DC50 (ER-α [1]): ≤ 1 nM | MCF7 Viability Assay Max Response (MCF-7 cells): ++ (++ = a single % value ≧50%) | IC50 (MCF-7 cells): ≤ 1 nM | Emax (ER-α [2]): ≥ 65% | DC50 (ER-α [2]): ≤ 1 nM

CC1=C(c2ccc(O)cc2)C(c2ccc(OC[C@H](C)N3CC[C@@H](C)C3)cc2)Oc2ccc(O)cc21 (stereo partly drawn) [Example 31, 3-(4-Hydroxyphenyl)-4-methyl-2-(4-((S)-2-((R)-3-methylpyrrolidin-1-yl)propoxy)phenyl)-2H-chromen-6-ol]
Emax (ER-α [1]): ≥ 85% | DC50 (ER-α [1]): ≤ 1 nM | MCF7 Viability Assay Max Response (MCF-7 cells): ++ (++ = a single % value ≧50%) | IC50 (MCF-7 cells): ≤ 1 nM | Emax (ER-α [2]): ≥ 65% | DC50 (ER-α [2]): ≤ 1 nM

CC1=C(c2cccc(F)c2)C(c2ccc(OC[C@H](C)N3CC[C@@H](C)C3)cc2)Oc2ccc(O)cc21 (stereo partly drawn) [Example 32, 3-(3-Fluorophenyl)-4-methyl-2-(4-((S)-2-((R)-3-methylpyrrolidin-1-yl)propoxy)phenyl)-2H-chromen-6-ol]
Emax (ER-α [1]): ≥ 85% | DC50 (ER-α [1]): ≤ 1 nM | MCF7 Viability Assay Max Response (MCF-7 cells): + (+ = a single % value <50%) | IC50 (MCF-7 cells): ≤ 1 nM | Emax (ER-α [2]): ≥ 65% | DC50 (ER-α [2]): ≤ 1 nM
